According to patent US4159328A, “Tetrahydro-1,3,5-thiadiazin-4-one derivative” (Nihon Nohyaku Co., Ltd., priority 1977, dated 1979):
Read-outs that look alike come from different tables or passages of the source.

Experiments:
Type in all cases: in vivo
[1] = tested on: larvae of 28-spotted lady beetle (Epilachna vigintioctopunctana Fabricius); experiment: Test Example 8: insecticidal activity against larvae of 28-spotted lady beetle; settings: 120 h
Experimental: Insecticidal activity against larvae of 28-spotted lady beetle (Epilachna vigintioctopunctana Fabricius).
Testing method: Leaflets of tomato grown in a greenhouse were dipped in a test composition of 100 ppm concentration for 30 seconds and after that the leaflets were dried by air. In a Petri dish covered on the bottom with a piece of filter paper, were introduced 1 ml of water and three treated tomato leaflets. After having been infested with seven second-instar larvae of 28-spotted lady beetle, the Petri dish was left standing in a constant temperature cabinet at 25° C. Five days after the treatment, the dead-and-survival was inspected to calculate the mortality (2-replication test).

[2] = tested on: larvae of green rice leafhopper (Nephotettix cincticeps Uhler); experiment: Test Example 5: activity against larvae of green rice leafhopper; settings: 168 h, 400 ppm, second-instar larvae, 25° C., seven days after treatment, read-out: Mortality
Method in brief: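 Rice seedlings at 1.5 leaf age dipped 30 seconds in 400 ppm test composition, air-dried, then infested with five second-instar larvae. Kept at 25° C; mortality scored seven days after treatment, three replicates.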

[3] = tested on: larvae of bug. (Togo hemipterus Scott); experiment: Test Example 9: insecticidal activity against larvae of bug; settings: 120 h, 10 ppm, first-instar larvae, 25° C., five days, read-out: Mortality
Experimental: Insecticidal activity against larvae of bug. (Togo hemipterus Scott).
Test method: Into a glass tube (1.6 cm in internal diameter and 9 cm in length), was added 1 ml of a test composition in 10 ppm concentration just to moisten the absorbent cotton. Five rice seeds and five first-instar larvae were introduced into the glass tube and the tube end was covered with a piece of Japanese paper. The glass tube was kept in a constant temperature cabinet at 25° C. Five days after treatment, the dead-and-survival was inspected to calculate the mortality (3-replication test).

[4] = tested on: larvae of house mosquito (Culex pipiens pallens Coquillett); experiment: Test Example 6: insecticidal activity to larvae of house mosquito; settings: 120 h
Method in brief: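 Twenty first-instar Culex pipiens pallens larvae placed with feed in test composition diluted in deionized water to 10 ppm. Kept at 25 °C, and mortality counted five days after treatment.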

[5] = tested on: larvae of brown planthopper (Nilaparvata lugens Stahl); experiment: Test Example 1: insecticidal activity against larvae of brown planthopper; settings: third-instar larvae, 25° C.
Method in brief: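 Rice seedlings at 1.5-leaf stage were dipped for 30 s in a 400 ppm test composition, air-dried, and infested with third-instar N. lugens larvae. After holding at 25 °C, mortality was scored 5 or 7 days post-treatment from three replicates.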

[6] = tested on: cirrus red mite (Panonychus citri McGregor); experiment: Test Example 4: activity to citrus red mite (Rothamstead method); parameters: concentration or dose not given beside the values; settings: two days after treatment, 25° C.; 2880 min
Experimental: Activity to cirrus red mite (Panonychus citri McGregor).
Testing method: The test was performed by Rothamstead method. A test composition was sprayed by means of a spray gun over grapefruit leaves infested with citrus red mites. After air-drying the grapefruit was left standing in a constant temperature cabinet at 25° C. Two days after the treatment, the number of survived mites was counted to calculate the mortality.

[7] = tested on: larvae of white-backed planthopper (Sogatella furcifera Horvath); experiment: Test Example 2: insecticidal activity against larvae of white-backed planthopper; settings: 168 h, 400 ppm, first-instar larvae, 25° C., seven days after treatment, read-out: Mortality
Method in brief: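 Rice seedlings at 1.5-leaf stage were dipped 30 s in 400 ppm test composition, air-dried, and infested with five first-instar larvae. Tubes were held at 25°C, and mortality was scored at 7 days from triplicate tests.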

[8] = tested on: two-spotted spider mite (Tetranychus urticae Koch); experiment: Test Example 3: activity to two-spotted spider mite
From the text: Activity to two-spotted spider mite (Tetranychus urticae Koch).
Testing method: Two-spotted spider mites were set free on the pot-planted soybean in a greenhouse. On the next day, a test composition of 1,000 ppm concentration was sprayed over the soybean by means of a spray gun. Two days or five days after the treatment, dead-and-survival was inspected to calculate the mortality.

[9] = 100 ppm, second-instar larvae, 25° C., five days, read-out: Mortality
[10] = 120 h, 1,000 ppm, 5 days after treatment
[11] = 48 h, 1,000 ppm, 2 days after treatment

C=CCN1C(=O)N(c2ccccc2)CSC1=NC(C)CC (stereo not shown) [Compound 142]
mortality at 100 ppm [1]: 100%
mortality at 400 ppm [2]: 100%
mortality at 10 ppm [3]: 100%
mortality at 10 ppm [4]: 100%
mortality at 400 ppm ([5]; 120 h, 5 days after treatment): 100%

CC(C)CN=C1SCN(c2ccccc2)C(=O)N1CC(C)C [Compound 148]
mortality at 100 ppm [1]: 100%
Mortality [6]: 100%
mortality at 400 ppm ([5]; 120 h, 5 days after treatment): 100%

CC(C)(C)N=C1SCN(c2ccccc2)C(=O)N1C1CCCCC1 [Compound 155, 2-t-Butylimino-3-cyclohexyl-5-phenyl-tetrahydro-1,3,5-thiadiazin-4-one]
mortality at 100 ppm [1]: 100%
mortality at 10 ppm [3]: 100%
mortality at 10 ppm [4]: 100%
mortality at 400 ppm ([5]; 120 h, 5 days after treatment): 50%

CCCN=C1SCN(c2ccccc2)C(=O)N1CCC [Compound 134]
mortality at 100 ppm [1]: 80%
mortality at 10 ppm [3]: 80%
mortality at 10 ppm [4]: 80%
mortality at 400 ppm ([5]; 120 h, 5 days after treatment): 100%

C=CCN=C1SCN(c2ccccc2)C(=O)N1CC=C [Compound 139]
mortality at 100 ppm [1]: 100%
mortality at 10 ppm [3]: 100%
mortality at 10 ppm [4]: 100%
mortality at 400 ppm ([5]; 120 h, 5 days after treatment): 100%

CC(C)CN1C(=O)N(c2ccccc2)CSC1=NC(C)C [Compound 149, 2-Isopropylimino-3-isobutyl-5-phenyl-tetrahydro-1,3,5-thiadiazin-4-one]
mortality at 100 ppm [1]: 100%
mortality at 10 ppm [3]: 50%
mortality at 10 ppm [4]: 100%
mortality at 400 ppm ([5]; 120 h, 5 days after treatment): 100%

CCN1C(=O)N(c2ccccc2)CSC1=NC(C)C [Compound 127]
mortality at 100 ppm [1]: 80%
mortality at 10 ppm [3]: 100%
mortality at 10 ppm [4]: 100%
mortality at 400 ppm ([5]; 120 h, 5 days after treatment): 100%

CCCN=C1SCN(c2ccccc2)C(=O)N1CC [Compound 126]
mortality at 100 ppm [1, 9]: 80%
mortality at 10 ppm [3]: 100%
mortality at 10 ppm [4]: 100%
mortality at 400 ppm ([5]; 120 h, 5 days after treatment): 100%

CCC(C)N1C(=O)N(c2ccccc2)CSC1=NC(C)(C)CC(C)(C)C (stereo not shown) [Compound 157]
mortality at 100 ppm [1]: 100%
mortality at 10 ppm [3]: 100%
mortality at 10 ppm [4]: 100%
mortality at 400 ppm ([5]; 120 h, 5 days after treatment): 100%

Cc1ccc(N2CSC(=NC(C)C)N(C(C)C)C2=O)cc1 [Compound 316]
mortality at 100 ppm [1]: 100%
mortality at 400 ppm [7]: 100%
Mortality [6]: 100%
mortality at 1000 ppm [8, 10]: 100%
mortality at 10 ppm [4]: 70%
mortality at 400 ppm ([5]; 120 h, 5 days after treatment): 100%

CC(C)N1C(=O)N(c2ccccc2)CSC1=NC(C)(C)CC(C)(C)C [Compound 156]
mortality at 100 ppm [1]: 90%
mortality at 400 ppm [2]: 100%
mortality at 10 ppm [3]: 50%
mortality at 10 ppm [4]: 100%
mortality at 400 ppm ([5]; 120 h, 5 days after treatment): 100%

CCC(C)N1C(=O)N(c2ccccc2Cl)CSC1=NC(C)(C)C (stereo not shown) [Compound 249]
mortality at 100 ppm [1]: 100%
Mortality [6]: 100%
mortality at 400 ppm [2]: 100%
mortality at 1000 ppm [8, 10]: 70%
mortality at 10 ppm [4]: 100%
mortality at 400 ppm ([5]; 120 h, 5 days after treatment): 100%

CCC(C)N1C(=O)N(c2ccc(C)cc2)CSC1=NC(C)(C)C (stereo not shown) [Compound 319]
mortality at 100 ppm [1]: 100%
mortality at 400 ppm [7]: 100%
Mortality [6]: 100%
mortality at 400 ppm [2]: 100%
mortality at 1000 ppm [8, 10]: 100%
mortality at 10 ppm [4]: 100%
mortality at 400 ppm ([5]; 120 h, 5 days after treatment): 100%

CCC(C)N=C1SCN(c2ccccc2)C(=O)N1C(C)CC (stereo not shown) [Compound 151]
mortality at 100 ppm [1]: 100%
mortality at 400 ppm [2]: 100%
mortality at 10 ppm [3]: 80%
mortality at 10 ppm [4]: 100%
mortality at 400 ppm ([5]; 120 h, 5 days after treatment): 100%

CC(C)CN1C(=O)N(c2ccccc2)CSC1=NC(C)(C)C [Compound 150]
mortality at 100 ppm [1]: 80%
mortality at 400 ppm [2]: 90%
mortality at 10 ppm [3]: 50%
mortality at 10 ppm [4]: 100%
mortality at 400 ppm ([5]; 120 h, 5 days after treatment): 100%

C=CCN1C(=O)N(c2ccccc2)CSC1=NC(C)C [Compound 141]
mortality at 100 ppm [1]: 100%
mortality at 400 ppm [2]: 100%
mortality at 10 ppm [3]: 80%
mortality at 10 ppm [4]: 100%
mortality at 400 ppm ([5]; 120 h, 5 days after treatment): 100%

CC(C)N1C(=O)N(C(C)(C)C)CSC1=NC(C)(C)CC(C)(C)C [Compound 48]
mortality at 400 ppm [7]: 100%
Mortality [6]: 100%
mortality at 400 ppm [2]: 80%
mortality at 1000 ppm [8, 11]: 100%
mortality at 400 ppm ([5]; 168 h, 7 days after treatment): 100%

COc1ccc(Cl)cc1N1C(=O)N(Cc2ccccc2)CSC1=NC(C)C [Compound 87]
mortality at 400 ppm [7]: 100%
Mortality [6]: 100%
mortality at 400 ppm [2]: 80%
mortality at 1000 ppm [8, 11]: 100%
mortality at 400 ppm ([5]; 168 h, 7 days after treatment): 100%

CCCCN1CSC(=NC(C)C)N(C)C1=O [Compound 25]
mortality at 400 ppm [7]: 100%
Mortality [6]: 80%
mortality at 400 ppm [2]: 100%
mortality at 1000 ppm [8, 11]: 100%
mortality at 400 ppm ([5]; 168 h, 7 days after treatment): 100%

C=CCN1C(=O)N(c2ccccc2)CSC1=NCCC [Compound 140]
mortality at 100 ppm [1]: 50%
mortality at 400 ppm [2]: 100%
mortality at 10 ppm [3]: 50%
mortality at 10 ppm [4]: 100%
mortality at 400 ppm ([5]; 120 h, 5 days after treatment): 100%

CN=C1SCN(C(C)C)C(=O)N1C [Compound 16]
mortality at 400 ppm [7]: 100%
Mortality [6]: 100%
mortality at 400 ppm [2]: 100%
mortality at 1000 ppm [8, 11]: 100%
mortality at 400 ppm ([5]; 168 h, 7 days after treatment): 100%

CC(C)CN1CSC(=NC(C)C)N(C(C)C)C1=O [Compound 27]
mortality at 400 ppm [7]: 100%
Mortality [6]: 100%
mortality at 400 ppm [2]: 80%
mortality at 1000 ppm [8, 11]: 80%
mortality at 400 ppm ([5]; 168 h, 7 days after treatment): 100%

CCN1C(=O)N(c2ccccc2)CSC1=NCC(C)C [Compound 129]
mortality at 10 ppm [3]: 100%
mortality at 10 ppm [4]: 100%
mortality at 400 ppm ([5]; 120 h, 5 days after treatment): 80%

CCN=C1SCN(c2ccccc2)C(=O)N1c1ccccc1 [Compound 162]
mortality at 100 ppm [1, 9]: 50%
mortality at 10 ppm [3]: 50%
mortality at 10 ppm [4]: 100%
mortality at 400 ppm ([5]; 120 h, 5 days after treatment): 100%

C=CCN1C(=O)N(c2ccccc2)CSC1=NC(C)(C)C [Compound 143]
mortality at 100 ppm [1]: 100%
mortality at 400 ppm [2]: 100%
mortality at 10 ppm [3]: 100%
mortality at 10 ppm [4]: 80%

CCCN1C(=O)N(c2ccccc2)CSC1=NC(C)(C)C [Compound 137]
mortality at 100 ppm [1]: 50%
mortality at 10 ppm [3]: 50%
mortality at 10 ppm [4]: 100%
mortality at 400 ppm ([5]; 120 h, 5 days after treatment): 80%

CN=C1SCN(C(C)(C)C)C(=O)N1c1ccc(F)cc1 [Compound 71]
mortality at 400 ppm [7]: 80%
Mortality [6]: 50%
mortality at 400 ppm [2]: 50%
mortality at 1000 ppm [8, 11]: 100%
mortality at 400 ppm ([5]; 168 h, 7 days after treatment): 80%

CN1C(=O)N(C(C)(C)CC(C)(C)C)CSC1=NC(C)(C)C [Compound 63, 2-t-Butylimino-3-methyl-5-(1,1,3,3-tetramethyl)-butyl-tetrahydro-1,3,5-thiadiazin-4-one]
mortality at 400 ppm [7]: 100%
Mortality [6]: 50%
mortality at 400 ppm [2]: 80%
mortality at 1000 ppm [8, 11]: 80%
mortality at 400 ppm ([5]; 168 h, 7 days after treatment): 100%

CCCN1C(=O)N(c2ccccc2)CSC1=NC(C)CC (stereo not shown) [Compound 136]
mortality at 100 ppm [1]: 50%
mortality at 10 ppm [3]: 100%
mortality at 10 ppm [4]: 100%
mortality at 400 ppm ([5]; 120 h, 5 days after treatment): 80%

CCCN1CSC(=NC(C)C)N(C(C)C)C1=O [Compound 14]
mortality at 400 ppm [7]: 100%
Mortality [6]: 50%
mortality at 400 ppm [2]: 100%
mortality at 1000 ppm [8, 11]: 100%
mortality at 400 ppm ([5]; 168 h, 7 days after treatment): 80%

CC(C)N=C1SCN(C(C)(C)C)C(=O)N1C [Compound 33]
mortality at 400 ppm [7]: 100%
Mortality [6]: 100%
mortality at 400 ppm [2]: 100%
mortality at 1000 ppm [8, 11]: 100%
mortality at 400 ppm ([5]; 168 h, 7 days after treatment): 100%

CN=C1SCN(C(C)(C)C)C(=O)N1c1ccc(Cl)cc1C [Compound 82]
mortality at 400 ppm [7]: 100%
Mortality [6]: 100%
mortality at 400 ppm [2]: 80%
mortality at 1000 ppm [8, 11]: 100%
mortality at 400 ppm ([5]; 168 h, 7 days after treatment): 100%

C=CCN1CSC(=NC)N(C)C1=O [Compound 9]
mortality at 400 ppm [7]: 100%
Mortality [6]: 50%
mortality at 400 ppm [2]: 100%
mortality at 1000 ppm [8, 11]: 80%
mortality at 400 ppm ([5]; 168 h, 7 days after treatment): 100%
